{
  "source": "patent US20230295197A1",
  "about": "“STAT5 and STAT6 Degraders and Uses Thereof” (REGENTS OF THE UNIVERSITY OF MICHICAN, priority 2022, published 2023)",
  "target": "T1, STAT6 (Homo sapiens, UniProt P42226)",
  "T1 construct": "endogenous in cells; host or cells: MOLM-16, KU-812, SKNO1, MB231, L1236",
  "T1 sequence (P42226 1-847)": "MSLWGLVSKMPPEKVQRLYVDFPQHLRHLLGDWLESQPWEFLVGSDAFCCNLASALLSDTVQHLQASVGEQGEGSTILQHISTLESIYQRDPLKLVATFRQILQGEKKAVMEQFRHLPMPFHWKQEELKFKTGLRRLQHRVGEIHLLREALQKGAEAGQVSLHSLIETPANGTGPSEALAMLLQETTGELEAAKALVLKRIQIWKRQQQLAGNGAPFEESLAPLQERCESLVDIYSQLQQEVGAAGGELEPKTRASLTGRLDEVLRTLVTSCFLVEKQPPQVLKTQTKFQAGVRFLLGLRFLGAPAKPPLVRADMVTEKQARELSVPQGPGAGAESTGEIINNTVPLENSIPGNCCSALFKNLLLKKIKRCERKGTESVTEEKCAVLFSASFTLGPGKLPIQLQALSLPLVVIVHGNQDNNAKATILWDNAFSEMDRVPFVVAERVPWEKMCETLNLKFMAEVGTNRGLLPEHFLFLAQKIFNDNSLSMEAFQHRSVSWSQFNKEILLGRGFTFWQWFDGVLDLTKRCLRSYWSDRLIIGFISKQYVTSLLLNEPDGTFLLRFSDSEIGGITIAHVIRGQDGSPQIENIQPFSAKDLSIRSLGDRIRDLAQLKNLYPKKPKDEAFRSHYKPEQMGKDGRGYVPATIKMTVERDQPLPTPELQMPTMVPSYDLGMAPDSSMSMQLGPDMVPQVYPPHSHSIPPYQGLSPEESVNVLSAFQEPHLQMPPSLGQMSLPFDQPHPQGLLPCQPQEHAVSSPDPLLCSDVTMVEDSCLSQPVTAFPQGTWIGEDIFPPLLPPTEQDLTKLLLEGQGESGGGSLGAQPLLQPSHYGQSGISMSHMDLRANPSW",
  "test": "Immunoblotting (Western blot) analysis of STAT6 degradation efficiency of degraders in treated cells",
  "type": "cell-based",
  "summary_of_the_method": "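Cells (~1 million per point) treated with compounds at indicated concentrations and times, lysed in RIPA with protease/phosphatase inhibitors; 20-40 μg protein run on SDS-PAGE and blotted to PVDF. STAT6 or STAT5 rabbit mAbs with GAPDH loading control, IRDye secondaries; near-infrared fluorescence scan, band intensity quantified.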",
  "key": {"[1]": {"details": "L1236 cells, read-out: DC50 S6 L1236"}, "[2]": {"details": "MOLM-16 cells, class symbols, read-out: DC50 S6 MOLM-16"}, "[3]": {"details": "MOLM-16 cells, numeric bound, read-out: DC50 S6 MOLM-16"}},
  "note": "Like-named read-outs stand apart in the source and are kept apart here. *1 amine or outer side, *2 acyl side, *3 side chain or, on linkers, in order; H or OH if unused. Where a SMILES comes first, the peptide text is derived from it. [ ]: non-standard residue; d: D form. The star is where a group is joined. Benzothienyl2CO(5-CF2PO3H2) = O=C(c1cc2cc(C(F)(F)P(=O)(O)O)ccc2s1)*; βAla(N-(4-Br-phenyl)) = O=C(CCN(c1ccc(Br)cc1)[*:1])[*:2]; NHBn(4-(4-Me-thiazol-5-yl)) = Cc1ncsc1-c1ccc(CN*)cc1; Hyp = O=C(O)[C@@H]1C[C@@H](O)CN1; Tle = CC(C)(C)[C@H](N)C(=O)O; Aoc = NCCCCCCCC(=O)O",
  "data": [
    {"smiles": "O=C1CCC(N2Cc3c(C#CCCCCCC(=O)N4CC[C@H]5CC[C@@H](C(=O)N6CC[C@@H](c7ccccc7)C6)N5C(=O)[C@@H](NC(=O)c5cc6cc(C(F)(F)P(=O)(O)O)ccc6s5)C4)cccc3C2=O)C(=O)N1", "note": "(stereo partly drawn) [Compound 563, ((2-(((5S,8S,10aR)-3-(8-(2-(2,6-dioxopiperidin-3-yl)-1-oxoisoindolin-4-yl)oct-7-ynoyl)-6-oxo-8-((S)-3-phenylpyrrolidine-1-carbonyl)decahydropyrrolo[1,2-a][1,5]diazocin-5-yl)carbamoyl)benzo[b]thiophen-5-yl)difluoromethyl)phosphonic acid]", "values": [
      {"measurement": "DC50", "setting": "[1]", "result": "> 10", "unit": "µM"},
      {"measurement": "DC50", "setting": "[2]", "result": "> 10", "unit": "µM"}
    ]},
    {"smiles": "Cc1ncsc1-c1ccc([C@H](C)NC(=O)[C@@H]2C[C@@H](O)CN2C(=O)[C@@H](NC(=O)CCCCCCCNC(=O)COc2ccc3c(c2)CN(C(=O)[C@@H](NC(=O)c2cc4cc(C(F)(F)P(=O)(O)O)ccc4s2)C(C)(C)C)[C@H](C(=O)N2CCC[C@H](c4ccccc4)C2)C3)C(C)(C)C)cc1", "note": "[Compound 476, (difluoro(2-(((S)-1-((S)-7-(2-((8-(((S)-1-((2S,4R)-4-hydroxy-2-(((S)-1-(4-(4-methylthiazol-5-yl)phenyl)ethyl)carbamoyl)pyrrolidin-1-yl)-3,3-dimethyl-1-oxobutan-2-yl)amino)-8-oxooctyl)amino)-2-oxoethoxy)-3-((R)-3-phenylpiperidine-1-carbonyl)-3,4-dihydroisoquinolin-2(1H)-yl)-3,3-dimethyl-1-oxobutan-2-yl)carbamoyl)benzo[b]thiophen-5-yl)methyl)phosphonic acid]", "values": [
      {"measurement": "DC50", "setting": "[2]", "result": "> 10", "unit": "µM"}
    ]},
    {"smiles": "CC(C)(C)[C@H](NC(=O)c1cc2cc(C(F)(F)P(=O)(O)O)ccc2s1)C(=O)N1CCN(C(=O)CC(=O)NCC#Cc2ccc3c(c2)C(=O)N(C2CCC(=O)NC2=O)C3=O)C[C@H]1C(=O)N1CCO[C@H](c2ccccc2)C1", "note": "(stereo partly drawn) [Compound 508, ((2-(((2S)-1-((2S)-4-(3-((3-(2-(2,6-dioxopiperidin-3-yl)-1,3-dioxoisoindolin-5-yl)prop-2-yn-1-yl)amino)-3-oxopropanoyl)-2-((R)-2-phenylmorpholine-4-carbonyl)piperazin-1-yl)-3,3-dimethyl-1-oxobutan-2-yl)carbamoyl)benzo[b]thiophen-5-yl)difluoromethyl)phosphonic acid]", "values": [
      {"measurement": "DC50", "setting": "[2]", "result": "> 10", "unit": "µM"}
    ]},
    {"smiles": "CC(C)(C)[C@H](NC(=O)c1cc2cc(C(F)(F)P(=O)(O)O)ccc2s1)C(=O)N1CCN(C(=O)CCCCCC#Cc2ccc3c(c2)CN(C2CCC(=O)NC2=O)C3=O)C[C@H]1C(=O)N1CCO[C@H](c2ccccc2)C1", "note": "(stereo partly drawn) [Compound 596, ((2-(((2S)-1-((2S)-4-(8-(2-(2,6-dioxopiperidin-3-yl)-1-oxoisoindolin-5-yl)oct-7-ynoyl)-2-((R)-2-phenylmorpholine-4-carbonyl)piperazin-1-yl)-3,3-dimethyl-1-oxobutan-2-yl)carbamoyl)benzo[b]thiophen-5-yl)difluoromethyl)phosphonic acid]", "values": [
      {"measurement": "DC50", "setting": "[3]", "result": "> 0.3", "unit": "µM"}
    ]},
    {"smiles": "CC(C)(C)[C@H](NC(=O)c1cc2cc(C(F)(F)P(=O)(O)O)ccc2s1)C(=O)N1Cc2cc(OCC(=O)NCC#Cc3cccc4c3C(=O)N(C3CCC(=O)NC3=O)C4=O)ccc2C[C@H]1C(=O)N1CCO[C@H](c2ccccc2)C1", "note": "(stereo partly drawn) [Compound 535, ((2-(((2S)-1-((3S)-7-(2-((3-(2-(2,6-dioxopiperidin-3-yl)-1,3-dioxoisoindolin-4-yl)prop-2-yn-1-yl)amino)-2-oxoethoxy)-3-((R)-2-phenylmorpholine-4-carbonyl)-3,4-dihydroisoquinolin-2(1H)-yl)-3,3-dimethyl-1-oxobutan-2-yl)carbamoyl)benzo[b]thiophen-5-yl)difluoromethyl)phosphonic acid]", "values": [
      {"measurement": "DC50", "setting": "[2]", "result": "0.1 to 1", "unit": "µM"}
    ]},
    {"smiles": "CC(C)(C)[C@H](NC(=O)c1cc2cc(C(F)(F)P(=O)(O)O)ccc2s1)C(=O)N1C[C@@H](OCC(=O)NCCCCC#Cc2ccc3c(c2)C(=O)N(C2CCC(=O)NC2=O)C3=O)C[C@H]1C(=O)N1CCC[C@H](c2ccccc2)C1", "note": "(stereo partly drawn) [Compound 500, ((2-(((2S)-1-((2S,4S)-4-(2-((6-(2-(2,6-dioxopiperidin-3-yl)-1,3-dioxoisoindolin-5-yl)hex-5-yn-1-yl)amino)-2-oxoethoxy)-2-((R)-3-phenylpiperidine-1-carbonyl)pyrrolidin-1-yl)-3,3-dimethyl-1-oxobutan-2-yl)carbamoyl)benzo[b]thiophen-5-yl)difluoromethyl)phosphonic acid]", "values": [
      {"measurement": "DC50", "setting": "[2]", "result": "> 10", "unit": "µM"}
    ]},
    {"smiles": "CC(C)(C)[C@H](NC(=O)c1cc2cc(C(F)(F)P(=O)(O)O)ccc2s1)C(=O)N1C[C@@H](OCC(=O)NCC#Cc2cccc3c2C(=O)N(C2CCC(=O)NC2=O)C3=O)C[C@H]1C(=O)N1CCO[C@H](c2ccccc2)C1", "note": "(stereo partly drawn) [Compound 479, ((2-(((2S)-1-((2S,4S)-4-(2-((3-(2-(2,6-dioxopiperidin-3-yl)-1,3-dioxoisoindolin-4-yl)prop-2-yn-1-yl)amino)-2-oxoethoxy)-2-((R)-2-phenylmorpholine-4-carbonyl)pyrrolidin-1-yl)-3,3-dimethyl-1-oxobutan-2-yl)carbamoyl)benzo[b]thiophen-5-yl)difluoromethyl)phosphonic acid]", "values": [
      {"measurement": "DC50", "setting": "[2]", "result": "> 10", "unit": "µM"}
    ]},
    {"smiles": "CC(C)(C)[C@H](NC(=O)c1cc2cc(C(F)(F)P(=O)(O)O)ccc2s1)C(=O)N1CCN(C(=O)CC(=O)NCCCCCCCCCC#Cc2cccc3c2C(=O)N(C2CCC(=O)NC2=O)C3=O)C[C@H]1C(=O)N1CCO[C@H](c2ccccc2)C1", "note": "(stereo partly drawn) [Compound 519, ((2-(((2S)-1-((2S)-4-(3-((11-(2-(2,6-dioxopiperidin-3-yl)-1,3-dioxoisoindolin-4-yl)undec-10-yn-1-yl)amino)-3-oxopropanoyl)-2-((R)-2-phenylmorpholine-4-carbonyl)piperazin-1-yl)-3,3-dimethyl-1-oxobutan-2-yl)carbamoyl)benzo[b]thiophen-5-yl)difluoromethyl)phosphonic acid]", "values": [
      {"measurement": "DC50", "setting": "[2]", "result": "> 10", "unit": "µM"}
    ]},
    {"smiles": "Cc1ncsc1-c1ccc([C@H](C)NC(=O)[C@@H]2C[C@@H](O)CN2C(=O)[C@@H](NC(=O)CCCCCNC(=O)COc2ccc3c(c2)CN(C(=O)[C@@H](NC(=O)c2cc4cc(C(F)(F)P(=O)(O)O)ccc4s2)C(C)(C)C)[C@H](C(=O)N2CCO[C@H](c4ccccc4)C2)C3)C(C)(C)C)cc1", "note": "[Compound 465, (difluoro(2-(((S)-1-((S)-7-(2-((6-(((S)-1-((2S,4R)-4-hydroxy-2-(((S)-1-(4-(4-methylthiazol-5-yl)phenyl)ethyl)carbamoyl)pyrrolidin-1-yl)-3,3-dimethyl-1-oxobutan-2-yl)amino)-6-oxohexyl)amino)-2-oxoethoxy)-3-((R)-2-phenylmorpholine-4-carbonyl)-3,4-dihydroisoquinolin-2(1H)-yl)-3,3-dimethyl-1-oxobutan-2-yl)carbamoyl)benzo[b]thiophen-5-yl)methyl)phosphonic acid]", "values": [
      {"measurement": "DC50", "setting": "[1]", "result": "> 10", "unit": "µM"},
      {"measurement": "DC50", "setting": "[2]", "result": "> 10", "unit": "µM"}
    ]},
    {"smiles": "Cc1ncsc1-c1ccc([C@H](C)NC(=O)[C@@H]2C[C@@H](O)CN2C(=O)[C@@H](NC(=O)CCCCNC(=O)CO[C@H]2C[C@@H](C(=O)N3CCO[C@H](c4ccccc4)C3)N(C(=O)[C@@H](NC(=O)c3cc4cc(C(F)(F)P(=O)(O)O)ccc4s3)C(C)(C)C)C2)C(C)(C)C)cc1", "note": "[Compound 428, (difluoro(2-(((S)-1-((2S,4S)-4-(2-((5-(((S)-1-((2S,4R)-4-hydroxy-2-(((S)-1-(4-(4-methylthiazol-5-yl)phenyl)ethyl)carbamoyl)pyrrolidin-1-yl)-3,3-dimethyl-1-oxobutan-2-yl)amino)-5-oxopentyl)amino)-2-oxoethoxy)-2-((R)-2-phenylmorpholine-4-carbonyl)pyrrolidin-1-yl)-3,3-dimethyl-1-oxobutan-2-yl)carbamoyl)benzo[b]thiophen-5-yl)methyl)phosphonic acid]", "values": [
      {"measurement": "DC50", "setting": "[1]", "result": "> 10", "unit": "µM"},
      {"measurement": "DC50", "setting": "[2]", "result": "> 10", "unit": "µM"}
    ]},
    {"smiles": "CC(C)(C)[C@H](NC(=O)c1cc2cc(C(F)(F)P(=O)(O)O)ccc2s1)C(=O)N1C[C@@H](OCCCCCCC#Cc2cccc3c2CN(C2CCC(=O)NC2=O)C3=O)C[C@H]1C(=O)N1CCOC(c2cccnc2)C1", "note": "(stereo partly drawn) [Compound 609]", "values": [
      {"measurement": "DC50", "setting": "[3]", "result": "> 0.3", "unit": "µM"}
    ]},
    {"smiles": "Cc1ncsc1-c1ccc(CNC(=O)[C@@H]2C[C@@H](O)CN2C(=O)[C@@H](NC(=O)CCCCCCCNC(=O)CCN(C(=O)[C@@H]2CCCN2C(=O)[C@@H](NC(=O)c2cc3cc(C(F)(F)P(=O)(O)O)ccc3s2)C(C)(C)C)c2ccc(Br)cc2)C(C)(C)C)cc1", "note": "[Compound 398] ({Benzothienyl2CO(5-CF2PO3H2)}-[Tle]P[βAla(N-(4-Br-phenyl))][Aoc][Tle][Hyp]-{NHBn(4-(4-Me-thiazol-5-yl))})", "values": [
      {"measurement": "DC50", "setting": "read-out: DC50 S6 MB231, MB231 cells", "result": "> 10", "unit": "µM"}
    ]}
  ]
}
